In the case of `O=C(c1cc(-n2cnnn2)ccc1O)N1CCC(CCO)(c2ccccc2)C1` (stereo not drawn), the melting point is reported as 86 to 96 °C.
With `CCCC(C)(CCC)C(=O)O[C@H]1C[C@H](O)C=C2C=C[C@H](C)[C@H](CC[C@@H]3C[C@@H](O)CC(=O)O3)[C@H]21` the melting point was 109 to 111 °C.
For `CCc1cccc(C)c1CNc1nc(OCCOC)cc(NC)c1[N+](=O)[O-]`, the melting point was 135 to 136 °C.
In the case of `CCCCCCCCCC1COC(c2ccc(CCCCCCC)c(F)c2F)OC1` (stereo not drawn), the melting point is reported as 40.4 °C.
`COc1cc(Br)ccc1OCc1ccc2ccccc2c1` gave a melting point of 108 °C.
In the case of `O=C1C2CCCCN2C(=O)N1c1ccc([N+](=O)[O-])c2ccccc12` (stereo not drawn), the melting point is reported as 190 to 192 °C.
For `NC(=O)N(O)CC=Cc1ccc(Oc2ccccc2)o1`, the melting point was 126 to 128 °C.
For `CC(C)(C)OC(=O)Nc1cc(N2CCOC2=O)c(-c2ccc(F)cc2)cc1N`, the melting point was 210 °C.
Work on `CN(C)S(=O)(=O)Oc1cccc2c1S(=O)(=O)N=C2C1=C(O)C(C(C)(C)C)N(Cc2ccc(F)cc2)C1=O` (stereo not drawn) yielded a melting point of 116 to 126 °C.
Compound `O=C1N(Cc2ccco2)Cc2cnc(Nc3ccccc3)nc2N1c1cccc(CCO)c1` has a melting point of 195 °C.
`O=C(Nc1ccc2[nH]c(=O)oc2c1)C(=O)N1CCC(Cc2cccc(F)c2)CC1` gave a melting point of 215 to 217 °C.
`CS(=O)(=O)c1ccc(-c2cc(CO[N+](=O)[O-])nn2C2CCCCCCC2)cc1` gave a melting point of 110 to 111 °C.
For `N#Cc1ccc(NC(=O)c2cccc(OCc3cccc(F)c3F)c2)cc1`, the melting point was 149 to 150 °C.
In the case of `O=C(NCc1ccccn1)c1ccc(N2CCN(C(=O)c3ccccc3C(F)(F)F)CC2)nn1`, the melting point is reported as 179 to 181 °C.
For `O=C(NCCCCOc1ccc(-n2ccnc2)cc1)c1ccccc1`, the melting point was 117 to 118 °C.
In the case of `O=c1[nH]c2cc(Cl)ccc2c(=O)c(-c2ccccc2)c1O`, the melting point is reported as 193 to 196 °C.
For `O=C(NC(c1ccc([N+](=O)[O-])cc1)P(=O)(Oc1ccccc1)Oc1ccccc1)N(c1ccccc1)c1ccccc1` (stereo not drawn), the melting point was 157 to 162 °C.
`CN(C(=O)CCc1ccccc1)c1ccc(C(=O)NN=C2C(=O)Nc3ccc(I)cc32)cc1` showed a melting point of 239 °C.
`Cc1ccnc(-c2nc(=O)c3ccccc3s2)c1` gave a melting point of 200 °C.
`Cc1ccc(C(C)C)c(-n2cc(-c3ccccc3)c(C)c2Cl)c1` showed a melting point of 103 °C.
`COC(=O)c1ccc(C(C)=O)o1` gave a melting point of 101 to 102 °C.
With `CC(C)CNc1c(N)c2nnnn2c2ccccc12` the melting point was 148 to 150 °C.
For `CCCCOCCOc1ccc(-c2ccc(N3CCC(C)CC3)c(C=CC(=O)O)c2)cc1`, the melting point was 159 to 160 °C.
With `CCCCC(=O)N[C@H]1CC[C@H](CCN2CCC(c3cccc4c3CCO4)CC2)CC1` the melting point was 186 °C.
Compound `O=C(O)c1ccc(/C=C\C(c2cc(Cl)c(Cl)c(Cl)c2)C(F)(F)F)cc1Br` (stereo not drawn) has a melting point of 54 to 64 °C.
`CC(=O)N(C(C)=O)c1cnn(-c2cccc(C(F)(F)F)c2)c(=O)c1-c1cccc(C(F)(F)F)c1` showed a melting point of 174 °C.
Compound `CC(C)(C)OC(=O)Nc1cc([N+](=O)[O-])c2ncccc2c1` has a melting point of 134 to 135 °C.
Compound `Clc1nc2cc(Br)c(Br)cc2[nH]1` has a melting point of 228 °C.
Work on `Cc1ccc(C(=S)CC2CCCN(C)C2)cc1` (stereo not drawn) yielded a melting point of 61.5 to 62.5 °C.
`Fc1cc(OCc2ccccc2)ccc1-c1ncc(Br)cn1` showed a melting point of 124 °C.
`COc1ccc(Oc2cn(C)cc(-c3cccc(C(F)(F)F)c3)c2=O)cc1` showed a melting point of 119 to 120 °C.
`COc1ccc2c(c1)C(=O)C1(O)c3ccc(C(C)C)cc3OC21O` (stereo not drawn) showed a melting point of 98 to 102 °C.
Compound `COc1cc(-c2cc(C(F)(F)F)nn2-c2ccc(S(C)(=O)=O)cc2)ccc1-c1cscn1` has a melting point of 164 to 166 °C.
`FC(F)(F)c1cccc(-c2cc(Cl)n3nccc3n2)c1` gave a melting point of 137 to 139 °C.
With `CC1(C)CC(=O)N(CC(COc2ccc(-c3ccc(C#N)cc3)cc2)N(O)C=O)C(=O)C1` (stereo not drawn) the melting point was 121 °C.
With `CCCCNS(=O)(=O)c1ccc2nc3scc(C)n3c(=O)c2c1` the melting point was 165 to 167 °C.
Work on `CN(C)C=NS(=O)(=O)CCC(C)(C)CCI` yielded a melting point of 105 to 106 °C.
With `Cc1nnc2ccc(-c3ccc(Cl)c(C(F)(F)F)c3)nn12` the melting point was 267 to 269 °C.
With `O=C(O)C=CC(=O)NCCCCCCCCCCCCCCCCCCCC(=O)O` the melting point was 146 to 148 °C.
Work on `O=[N+]([O-])c1ccc(F)c(-n2nc3c(c2Cl)CCCC3)c1` yielded a melting point of 109 °C.
Work on `CCCOc1ccccc1-c1nc2nc(NCC(C)OC)ncc2c(=O)[nH]1` (stereo not drawn) yielded a melting point of 193 to 194 °C.
Work on `COc1ccc(-c2nc(-c3ccc(OCCO)cc3O)nc(-c3ccc(OCCO)cc3OCCO)n2)cc1` yielded a melting point of 172 °C.
In the case of `COc1cc(-c2cccc(Cl)c2)c2cc(C(O)c3cncn3C)ccc2n1` (stereo not drawn), the melting point is reported as 205 °C.
`CCc1nnc(CCCOc2c(C)cc(N)c(C=NO)c2C)s1` showed a melting point of 158 to 160 °C.
In the case of `C[C@H]1[C@H](c2ccccc2)OC(c2cccc(Br)c2)N1C` (stereo partly drawn), the melting point is reported as 73 to 75 °C.
In the case of `CN(C)C(=O)Nc1ccc(Oc2cccc(C(F)(F)F)c2)c(Cl)c1`, the melting point is reported as 166 °C.
With `Cc1ccc(S(=O)(=O)CS(C)(=O)=O)cc1` the melting point was 164 to 165 °C.
For `CCOP(=O)(/C=C/c1cn(-c2ccccc2)nc1OCc1ccc(OCc2nc(-c3ccccc3)sc2C)c(OC)c1)OCC`, the melting point was 110 to 111 °C.
Work on `Clc1ccc(CNc2cncnc2)cc1` yielded a melting point of 121 °C.
`COc1cc2c(c3c1OC(C)(C)C3)C(c1ccn(CC(=O)NCC(N)=O)c(=O)c1)=NC(C)(C)C2` showed a melting point of 166 to 168 °C.
With `Cc1cc(C)cc(C(=O)N2CCN(C(=O)CNC3CN4CC3CC4Cc3ccccc3)C(c3ccc(Cl)c(Cl)c3)C2)c1` (stereo not drawn) the melting point was 69 to 71 °C.
With `Cc1cc2c(cc1N1CC=CC1)OC(=O)C2C` (stereo not drawn) the melting point was 81 to 82 °C.
Work on `CC1OC(O)(Cl)CC(NC(=O)C(F)(F)F)C1(O)OC(=O)C(F)(F)F` (stereo not drawn) yielded a melting point of 132 to 134 °C.
`CC(=O)C1C(=O)N(C(=O)Nc2ccc(F)cc2)c2ccccc21` (stereo not drawn) gave a melting point of 181 to 182 °C.
Compound `Cc1c(C)c2c(c(C)c1NCc1ccccc1)C(c1ccccc1)CO2` (stereo not drawn) has a melting point of 107 to 108 °C.
`NC(=O)c1ccc2[nH]cc(CCN3C(=O)c4ccccc4C3=O)c2c1` gave a melting point of 254 to 256 °C.
For `CO[C@@H]1[C@@H](OC)[C@H](C)O[C@@H](OC(=O)Nc2ccc(-c3ccnc(-c4ccc(C(F)(F)F)cc4)n3)cc2)[C@@H]1OC`, the melting point was 176 to 179 °C.
`CC(=O)N1CCN(CC(=O)OC2c3ccccc3C(=O)N2c2ccc3ccc(Cl)nc3n2)CC1` (stereo not drawn) gave a melting point of 192 °C.
For `Cn1c(=O)c(C#N)c(N2CCN(C(=O)c3cccs3)CC2)c2ccccc21`, the melting point was 247 °C.
For `CC(C)c1ccc(C(=O)Cc2cccs2)c(C(C)C)c1OS(N)(=O)=O`, the melting point was 133 to 136 °C.
For `CC(C)(C)c1cc(OCc2ccccc2-c2nnn[nH]2)cc(C(C)(C)C)c1O`, the melting point was 149 to 150 °C.
Compound `CCOC(=O)CSc1cccc(-c2nc(=O)c3ccccc3s2)n1` has a melting point of 124 to 125 °C.
In the case of `CC1(Cl)C(=O)N(c2cc(Cl)cc(Cl)c2)N=C1Cl` (stereo not drawn), the melting point is reported as 77 °C.
Work on `O=C1CC2(CC2)CC(=O)O1` yielded a melting point of 102 °C.
In the case of `Cc1[nH]c(=O)c(C#N)c2c1CC(c1cccnc1)CC2` (stereo not drawn), the melting point is reported as over 300 °C.
In the case of `COC(=O)c1c(OC)cc(OC)nc1C(F)(F)F`, the melting point is reported as 85 to 87.5 °C.
Work on `COC(=O)CCCc1cc2cc(C(F)(F)F)ccc2[nH]1` yielded a melting point of 115 °C.
`C#CCOc1cc(OCC=C)ccc1-c1nc2cnccc2[nH]1` showed a melting point of 195 °C.
`NC(=S)N1CCSC1c1ccccc1OCCN1CCN(c2cccc(F)c2)CC1` (stereo not drawn) gave a melting point of 136 to 137 °C.
With `CN(C)C(=O)C(=O)c1ccc(Cl)cc1C(=O)c1ccccc1` the melting point was 88 to 90 °C.
For `CC1CCCN(CC(O)c2ccccc2)C1` (stereo not drawn), the melting point was 70 °C.
`CS(=O)(=O)Nc1cccc(Nc2nc(NC3CCCC3)c3nc[nH]c3n2)c1` gave a melting point of 234 to 239 °C.
For `CCOC(=O)C(=CNc1cnsn1)C(=O)c1cc(F)c(F)cc1F`, the melting point was 117 to 118 °C.
With `N#Cc1cc(-c2c3ccccc3cc3sc4ccccc4c23)ccc1O` the melting point was 231 to 232 °C.
For `CCCCOCCOc1ccc(-c2ccc3c(c2)C=C(C(=O)Nc2ccc(CCCn4cnnc4)cc2)CCN3CC(C)C)cc1`, the melting point was 165 to 167 °C.
`O=C(Nc1cc(C(=O)O)cc(-c2ccccc2)c1)OCc1cc2cc(-c3ccccc3)ccc2o1` showed a melting point of 174 to 175 °C.
Work on `COc1ccc2ccc(NC(=O)c3cccc(O)c3)nc2n1` yielded a melting point of 295 °C.
In the case of `CC(C)(S)CN1CCC(CCO)CC1`, the melting point is reported as 42 °C.
Work on `O=[N+]([O-])c1cc(F)c(N2CCNCC2)cc1Cl` yielded a melting point of 91.5 °C.
In the case of `Brc1ccc(-c2ccncc2)cc1`, the melting point is reported as 123 to 124 °C.
`CCCSC(C)c1c(-c2ccc(S(C)(=O)=O)cc2)cnn(-c2ccc(F)cc2)c1=O` (stereo not drawn) showed a melting point of 45 to 60 °C.
`CCc1nc2ccc(C(C(C)C)n3ccnc3)cc2[nH]c1=O` (stereo not drawn) showed a melting point of 204 °C.
Compound `COc1cc(OC)c2sc(-c3ccc([N+](=O)[O-])cc3)nc2c1` has a melting point of 238 to 239 °C.
With `COc1ccc(-n2c(CF)nc3ccc([N+](=O)[O-])cc3c2=O)c(C)c1` the melting point was 190 to 192 °C.
Work on `Cn1c(CNCC2CCOC2)cc2cc(NC(=O)c3ccc(OC[C@@H]4CCCO4)cc3)ccc21` (stereo partly drawn) yielded a melting point of 128 to 129 °C.
`CN(C)c1ccc(C(=O)C(O)c2cccc(F)c2)cc1` (stereo not drawn) showed a melting point of 147 to 149 °C.
For `C=CCOc1ccccc1N(CC1CO1)S(C)(=O)=O` (stereo not drawn), the melting point was 78 °C.
Compound `C=CCNc1nc(NCC)nc2ccc([N+](=O)[O-])cc12` has a melting point of 227 to 228 °C.
In the case of `CC(=O)OCCCCN(C)CCCN(C)C(=O)[C@@H]1CCCN1S(=O)(=O)c1ccc(Cl)c(COc2cccc3c(-n4ccnc4)cc(C)nc23)c1Cl`, the melting point is reported as 88 °C.
With `CC(=O)N(C)CC(c1ccc(Cl)cc1)c1ccc(Cl)cc1` the melting point was 103 to 104 °C.
For `CN1CCc2c(c3cc(F)ccc3n2CCc2nc(-c3ccccc3)cs2)C1`, the melting point was 136 to 137 °C.
For `O=S(=O)(c1ccc(O)cc1)c1c(-c2ccccc2)oc2ccccc12`, the melting point was 166 to 168 °C.
Compound `O=C(O)c1snc(-c2ccc(Cl)c(Cl)c2)c1C(=O)O` has a melting point of 188 °C.
Work on `Cc1n[nH]c([N+](=O)[O-])c1-c1ncc([N+](=O)[O-])n1C` yielded a melting point of 184 °C.
Work on `CCOC(=O)Cc1ccc(SCc2ccc(Cl)cc2C(=O)O)cc1` yielded a melting point of 109 to 112 °C.
With `CC(=O)Nc1ccc(C)c(C=O)n1` the melting point was 202 °C.
`CN(CCOc1ccc([N+](=O)[O-])cc1)c1ccncc1` showed a melting point of 88 to 89 °C.
`N#Cc1cccc(C(=O)Nc2cccc(-n3nc(C(F)(F)F)cc3C(F)(F)F)c2)c1` showed a melting point of 160 to 161 °C.

Source: a melting point compilation (Tetko et al.; mined from patent text by program, amines drawn as free bases though some values may be those of a salt)
